Measured values as given in patent US9822107B2, “Thiazole-substituted aminoheteroaryls as spleen tyrosine kinase inhibitors” (MERCK SHARP & DOHME CORP., priority 2013, dated 2017).

Tested on: PGD2
Assay: not given
Details: dosed intranasally, phase I/II study, allergic rhinitis; cited from earlier work

| SMILES | clinical safety | decrease in PGD2 |
| --- | --- | --- |
| Oc1cccc(Nc2ncc(F)c(Nc3cccc(O)c3)n2)c1 [Example R112] | safe across a range of indicators | statistically significant decrease |

Target: T1, recombinant human GST-SYK (Homo sapiens, UniProt P43405)
T1 construct: purchased Carna Biosciences 08-176
Assay: Homogeneous Time-Resolved Fluorescence (HTRF) assay for the recombinant human Syk enzyme
Assay type: biochemical
Details: recombinant human GST-SYK 5 pM, ATP 25 μM, read-out: rhSYK Activity (IC50)
Description: Homogeneous Time-Resolved Fluorescence (HTRF) Assay for the Recombinant Human Syk Enzyme
A recombinant GST-hSYK fusion protein was used to measure potency of compounds to inhibit human Syk activity. […] Final volume of the reaction was 10 μL. Phosphorylation of the peptide was allowed to proceed for 45′ at room temperature. To quench the reaction and detect the phosphorylated product, 2 nM of a Europium-anti-phosphotyrosine antibody (Perkin Elmer #AD0161) and 70 nM SA-APC (Perkin-Elmer #CR130-100) were added together in 15 mM Tris pH 7.5, 40 mM EDTA, 0.01% tween 20. Final volume of the quenching solution was 10 μL.
The resulting HTRF signal was measured after 30 minutes on an EnVision (Perkin-Elmer) reader using a time-resolved fluorescence protocol.

| SMILES | IC50 [pM] |
| --- | --- |
| CC1(C)C[C@@](O)(c2ncc(-c3ccnc4cc(Nc5nccc(C(F)(F)F)n5)ccc34)s2)CC[C@@H]1C(=O)O (single isomer, unassigned) [Example 1.5, (1S,4R or 1R,4S)-4-hydroxy-2,2-dimethyl-4-(5-(7-((4-(trifluoromethyl)pyrimidin-2-yl)amino)quinolin-4-yl)thiazol-2-yl)cyclohexanecarboxylic acid] | 63200 |
| CC(O)(c1ncc(-c2c[nH]c3cc(Nc4nccc(C(F)(F)F)n4)ccc23)s1)[C@H]1CC[C@H](C(=O)O)CC1 (single isomer, unassigned) [Example 1.9, (trans)-4-((R or S)-1-hydroxy-1-(5-(6-((4-(trifluoromethyl)pyrimidin-2-yl)amino)-1H-indol-3-yl)thiazol-2-yl)ethyl) cyclohexanecarboxylic acid] | 39900 |
| CC(O)(c1ncc(-c2cc(Nc3nccc(C(F)(F)F)n3)cc3[nH]ccc23)s1)[C@H]1CC[C@H](C(=O)O)CC1 (single isomer, unassigned) [Example 1.1, (trans)-4-((R or 5)-1-hydroxy-1-(5-(6-((4-(trifluoromethyl)pyrimidin-2-yl)amino)-1H-indol-4-yl)thiazol-2-yl)ethyl)cyclohexanecarboxylic acid] | 500 |
| Cn1ccc2c(-c3cnc([C@@]4(O)CC[C@H](C(=O)O)C(C)(C)C4)s3)cc(Nc3nccc(C(F)(F)F)n3)cc21 (single isomer, unassigned) [Example 1.4, (1S,4R or 1R,4S)-4-hydroxy-2,2-dimethyl-4-[5-(1-methyl-6-{[4-(trifluoromethyl)pyrimidin-2-yl]amino}-1H-indol-4-yl)-1,3-thiazol-2-yl]cyclohexane-carboxylic acid] | 477 |
| O=C(O)[C@H]1CC[C@](O)(c2ncc(-c3c[nH]c4ccc(Nc5nccc(C(F)F)n5)cc34)s2)CC1 [Example 1.12, cis 4-(5-(5-((4-(difluoromethyl)pyrimidin-2-yl)amino)-1H-indol-3-yl)thiazol-2-yl)-4-hydroxy-cyclohexanecarboxylic acid] | 500 |
| CC(O)(c1ncc(-c2ccnc3cc(Nc4nccc(C(F)(F)F)n4)ccc23)s1)[C@H]1CC[C@H](C(=O)O)CC1 (single isomer, unassigned) [Example 1.6] | 61600 |
| CC1(C)C[C@@](O)(c2ncc(-c3c[nH]c4cc(Nc5nccc(C(F)(F)F)n5)ccc34)s2)CC[C@@H]1C(=O)O (single isomer, unassigned) [Example 1.7, (1S,4R or 1R,4S)-4-hydroxy-2,2-dimethyl-4-(5-(6-((4-(trifluoromethyl)pyrimidin-2-yl)amino)-1H-indol-3-yl)thiazol-2-yl)cyclohexanecarboxylic acid] | 49000 |
| O=C(O)[C@H]1CC[C@](O)(c2ncc(-c3n[nH]c4ccc(Nc5nccc(C(F)(F)F)n5)cc34)s2)CC1 [Example 1.11] | 500 |
| OC1(c2ncc(-c3cc(Nc4nccc(C(F)(F)F)n4)cc4[nH]ccc34)s2)CCC1 [Example 1.2, 1-[5-(6-{[4-(trifluoromethyl)pyrimidin-2-yl]amino}-1H-indol-4-yl)-1,3-thiazol-2-yl]cyclobutanol] | 10400 |
| O=C(O)[C@H]1CC[C@](O)(c2ncc(-c3c[nH]c4ccc(Nc5nccc(C(F)(F)F)n5)cc34)s2)CC1 [Example 1.8] | 500 |
| CC1(C)C[C@@](O)(c2ncc(-c3cc(Nc4nccc(C(F)(F)F)n4)cc4[nH]ccc34)s2)CC[C@@H]1C(=O)O (single isomer, unassigned) [Example 1.3, (1S,4R or 1R,4S)-4-hydroxy-2,2-dimethyl-4-[5-(6-{[4-(trifluoromethyl)pyrimidin-2-yl]amino}-1H-indol-4-yl)-1,3-thiazol-2-yl]cyclohexane-carboxylic acid] | 60 |

Second part, the compound after the results:

| IC50 [pM] | SMILES |
| --- | --- |
| 35800 | CC1(C)Oc2c(cc(Nc3nccc(C(F)(F)F)n3)cc2-c2cnc(C(C)(O)C(F)(F)F)s2)NC1=O (stereo not shown) [Example 2.5, 2,2-dimethyl-8-[2-(2,2,2-trifluoro-1-hydroxy-1-methylethyl)-1,3-thiazol-5-yl]-6-{[4-(trifluoromethyl)pyrimidin-2-yl]amino}-2H-1,4-benzoxazin-3(4H)-one] |
| 13200 | CC1(C)Oc2c(cc(Nc3nccc(C(F)(F)F)n3)cc2-c2cnc(C3(O)CCC3)s2)NC1=O [Example 2.2, 8-[2-(1-hydroxycyclobutyl)-1,3-thiazol-5-yl]-2,2-dimethyl-6-{[4-(trifluoromethyl)pyrimidin-2-yl]amino}-2H-1,4-benzoxazin-3(4H)-one] |
| 10100 | O=c1[nH]c2cc(Nc3nccc(C(F)(F)F)n3)cc(-c3cnc(C4(O)CCC4)s3)c2[nH]1 [Example 2.4, 4-[2-(1-hydroxycyclobutyl)-1,3-thiazol-5-yl]-6-{[4-(trifluoromethyl)pyrimidin-2-yl]amino}-1,3-dihydro-2H-benzimidazol-2-one] |
| 300 | CC1(C)Oc2c(cc(Nc3nccc(-c4c[nH]nn4)n3)cc2-c2cnc([C@]3(O)CC[C@@H](C(=O)O)CC3)s2)NC1=O [Example 2.1, (cis)-4-(5-(6-((4-(1H-1,2,3-Triazol-4-yl)pyrimidin-2-yl)amino)-2,2-dimethyl-3-oxo-3,4-dihydro-2H-benzo[b][1,4]oxazin-8-yl)thiazol-2-yl)-4-hydroxycyclohexanecarboxylic acid] |
| 500 | CC(O)(c1ncc(-c2cc(Nc3nccc(C(F)(F)F)n3)cc3[nH]cnc23)s1)[C@H]1CC[C@H](C(=O)O)CC1 (single isomer, unassigned) [Example 2.12, (trans)-4-((R or S)-1-hydroxy-1-(5-(6-((4-(trifluoromethyl)pyrimidin-2-yl)amino)-1H-benzo[d]imidazol-4-yl)thiazol-2-yl)ethyl)cyclohexanecarboxylic acid] |
| 7100 | CCOC(=O)[C@H]1CC[C@](O)(c2ncc(-c3cc(Nc4nccc(OC(C)C)n4)cc4c3OC(C)(C)C(=O)N4)s2)CC1 [Example 2.6, ethyl cis-4-[5-(2,2-dimethyl-6-{[4-(1-methylethoxy)pyrimidin-2-yl]amino}-3-oxo-3,4-dihydro-2H-1,4-benzoxazin-8-yl)-1,3-thiazol-2-yl]-4-hydroxy-cyclohexanecarboxylate] |
| 114 | CC(O)(c1ncc(-c2cc(Nc3nccc(C(F)(F)F)n3)cc3cn[nH]c23)s1)[C@H]1CC[C@H](C(=O)O)CC1 (single isomer, unassigned) [Example 2.10, (trans)-4-((R or S)-1-hydroxy-1-[5-(5-{[4-(trifluoromethyl)pyrimidin-2-yl]amino}-1H-indazol-7-yl)-1,3-thiazol-2-yl]ethyl}cyclohexanecarboxylic acid] |
| 866 | CC1(C)C[C@@H](C(C)(O)c2ncc(-c3cc(Nc4nccc(C(F)(F)F)n4)cc4cn[nH]c34)s2)CC[C@@H]1C(=O)O (single isomer, unassigned) [Example 2.9, (trans)-4-((R or S)-1-hydroxy-1-[5-(5-{[4-(trifluoromethyl)pyrimidin-2-yl]amino}-1H-indazol-7-yl)-1,3-thiazol-2-yl]ethyl}-2,2-dimethylcyclohexanecarboxylic acid] |
| 552 | CC1(C)C[C@@](O)(c2ncc(-c3cc(Nc4nccc(C(F)(F)F)n4)cc4cn[nH]c34)s2)CC[C@@H]1C(=O)O (single isomer, unassigned) [Example 2.8] |
| 366 | CC(C)Oc1ccnc(Nc2cc3c(c(-c4cnc([C@]5(O)CC[C@@H](C(=O)O)CC5)s4)c2)OC(C)(C)C(=O)N3)n1 [Example 2.7, cis-4-[5-(2,2-dimethyl-6-{[4-(1-methylethoxy)pyrimidin-2-yl]amino}-3-oxo-3,4-dihydro-2H-1,4-benzoxazin-8-yl)-1,3-thiazol-2-yl]-4-hydroxy-cyclohexanecarboxylic acid] |
| 500 | C[C@](O)(c1ncc(-c2cc(Nc3nccc(C(F)(F)F)n3)cc3[nH]ncc23)s1)C1CCC(C(=O)O)CC1 (single isomer, unassigned) [Example 2.11, (trans)-4-((R or S)-(1-hydroxy-1-(5-(6-((4-(trifluoromethyl)pyrimidin-2-yl)amino)-1H-indazol-4-yl)thiazol-2-yl)ethyl)cyclohexanecarboxylic acid] |

Tested on: not given
Assay: not given
Details: phase II clinical trial, allergic rhinitis; cited from earlier work

| SMILES | efficacy versus placebo |
| --- | --- |
| Oc1cccc(Nc2ncc(F)c(Nc3cccc(O)c3)n2)c1 [Example R112] | lack of efficacy versus placebo |
